Source: PubChem BioAssay AID248 (DTP/NCI, 2004)
Where “and” joins values, the source holds several entries; their conditions need not be identical. Identical values can stand only once. Inconclusive results and toxic doses are left out. Cut-off read from the data, not from the text of the source: active = T/C of 150% or more; inactive = T/C below 125%.

Tested on: L1210 leukemia ip in BDF1 mice, survival T/C
Assay: NCI In Vivo Anticancer Drug Screen. Data for tumor model L1210 Leukemia (intraperitoneal) in B6D2F1 (BDF1) mice
Details: endpoint: mean survival time, higher = longer survival
Outline: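 Ratio derived from survival: compound-dosed mice over vehicle-dosed mice, all bearing a transplantable tumor.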

[1] = dose: 100.0 mg/kg/injection, schedule: Q04DX002 (ip), vehicle: Klucel (hydroxypropylcellulose) (HPC)
[2] = dose: 200.0 mg/kg/injection, schedule: Q04DX002 (ip), vehicle: Klucel (hydroxypropylcellulose) (HPC)
[3] = dose: 400.0 mg/kg/injection, schedule: Q04DX002 (ip), vehicle: Klucel (hydroxypropylcellulose) (HPC)
[4] = dose: 100.0 mg/kg/injection, schedule: Q04DX003 (ip), vehicle: saline with Tween-80
[5] = dose: 200.0 mg/kg/injection, schedule: Q04DX003 (ip), vehicle: saline with Tween-80
[6] = dose: 400.0 mg/kg/injection, schedule: Q04DX003 (ip), vehicle: saline with Tween-80
[7] = dose: 100.0 mg/kg/injection, schedule: Q04DX003 (ip), vehicle: saline
[8] = dose: 200.0 mg/kg/injection, schedule: Q04DX003 (ip), vehicle: saline
[9] = dose: 400.0 mg/kg/injection, schedule: Q04DX003 (ip), vehicle: saline
[10] = dose: 25.0 mg/kg/injection, schedule: Q04DX003 (ip), vehicle: saline
[11] = dose: 50.0 mg/kg/injection, schedule: Q01DX001 (ip), vehicle: saline
[12] = dose: 100.0 mg/kg/injection, schedule: Q01DX001 (ip), vehicle: saline
[13] = dose: 100.0 mg/kg/injection, schedule: Q04DX003 (ip), vehicle: Klucel (hydroxypropylcellulose) (HPC)
[14] = dose: 200.0 mg/kg/injection, schedule: Q04DX003 (ip), vehicle: Klucel (hydroxypropylcellulose) (HPC)
[15] = dose: 400.0 mg/kg/injection, schedule: Q04DX003 (ip), vehicle: Klucel (hydroxypropylcellulose) (HPC)
[16] = dose: 12.5 mg/kg/injection, schedule: Q01DX009 (ip), vehicle: saline with Tween-80
[17] = dose: 100.0 mg/kg/injection, schedule: Q01DX009 (ip), vehicle: saline with Tween-80
[18] = dose: 200.0 mg/kg/injection, schedule: Q01DX009 (ip), vehicle: saline with Tween-80
[19] = dose: 400.0 mg/kg/injection, schedule: Q01DX009 (ip), vehicle: saline with Tween-80

Measured: T/C

COC(=O)c1cc(Cl)cc(N)c1Cl
inactive: [1] 98 % of control | [2] 98 % of control | [3] 91 % of control

CN(C)CCn1c2ccccc2c2ccccc21
inactive: [4] 92 % of control | [5] 92 % of control | [6] 95 % of control

O=C1OC2CC3CC2C1C3C(=O)N1CCCCC1 (configuration not stated)
inactive: [4] 115 % of control | [7] 98 % of control | [5] 100 % of control | [8] 96 % of control | [6] 100 % of control | [9] 96 % of control

CNNC(=O)c1cccnc1
inactive: dose: 25.0 mg/kg/injection, schedule: Q01DX001 (ip), vehicle: saline 95 % of control | dose: 25.0 mg/kg/injection, schedule: Q01DX009 (ip), vehicle: saline 95 % of control and 98 % of control | [10] 105 % of control | [11] 100 % of control | dose: 50.0 mg/kg/injection, schedule: Q01DX009 (ip), vehicle: saline 95 % of control and 100 % of control | dose: 50.0 mg/kg/injection, schedule: Q04DX003 (ip), vehicle: saline 104 % of control | [12] 102 % of control | dose: 100.0 mg/kg/injection, schedule: Q01DX009 (ip), vehicle: saline 95 % of control and 98 % of control | [7] 98 % of control

COc1ccc(C=O)cc1Br
inactive: [13] 102 % of control | [14] 97 % of control | [15] 95 % of control

Cc1ccc(C)c2c1CCCC2=O
inactive: [16] 110 % of control | dose: 25.0 mg/kg/injection, schedule: Q01DX009 (ip), vehicle: saline with Tween-80 107 % of control and 114 % of control | dose: 50.0 mg/kg/injection, schedule: Q01DX009 (ip), vehicle: saline with Tween-80 98 % of control and 106 % of control | [17] 88 % of control | [18] 93 % of control | [19] 96 % of control

Nc1nc(N)c2cc(NCc3ccc(Br)cc3)ccc2n1
inactive: dose: 6.25 mg/kg/injection, schedule: Q01DX009 (ip), vehicle: saline with Tween-80 103 % of control | [16] 100 % of control | [10] 96 % of control

O=C(CCCCCCCCC(=O)NCCBr)NCCBr
inactive: dose: 100.0 mg/kg/injection, schedule: Q01DX005 (ip), vehicle: Klucel (hydroxypropylcellulose) (HPC) 98 % of control | [1] 104 % of control | dose: 200.0 mg/kg/injection, schedule: Q01DX005 (ip), vehicle: Klucel (hydroxypropylcellulose) (HPC) 94 % of control | [2] 101 % of control | dose: 400.0 mg/kg/injection, schedule: Q01DX005 (ip), vehicle: Klucel (hydroxypropylcellulose) (HPC) 102 % of control | [3] 101 % of control

c1ccc2c(c1)[nH]c1c[n+]3c(c[n+]12)[nH]c1ccccc13
inactive: [11] 107 % of control | [12] 98 % of control | dose: 200.0 mg/kg/injection, schedule: Q01DX001 (ip), vehicle: saline 113 % of control

COc1cc2c(c(OC)c1OC)-c1ccc(SCc3ccccc3)c(=O)cc1[C@@H](NC(C)=O)CC2
inactive: dose: 6.25 mg/kg/injection, schedule: Q01DX009 (ip), vehicle: Klucel (hydroxypropylcellulose) (HPC) 106 % of control | dose: 8.2 mg/kg/injection, schedule: Q01DX009 (ip), vehicle: Klucel (hydroxypropylcellulose) (HPC) 121 % of control | dose: 12.5 mg/kg/injection, schedule: Q01DX009 (ip), vehicle: Klucel (hydroxypropylcellulose) (HPC) 124 % of control | dose: 18.0 mg/kg/injection, schedule: Q01DX009 (ip), vehicle: Klucel (hydroxypropylcellulose) (HPC) 101 % of control | dose: 25.0 mg/kg/injection, schedule: Q01DX009 (ip), vehicle: Klucel (hydroxypropylcellulose) (HPC) 115 % of control and 92 % of control

Cc1cccc[c]1[Sb]([c]1ccccc1C)[c]1ccccc1C
inactive: dose: 100.0 mg/kg/injection, schedule: Q04DX002 (ip), vehicle: saline with Tween-80 100 % of control | dose: 200.0 mg/kg/injection, schedule: Q04DX002 (ip), vehicle: saline with Tween-80 96 % of control | dose: 400.0 mg/kg/injection, schedule: Q04DX002 (ip), vehicle: saline with Tween-80 96 % of control

CCCCCCC(=O)N(CC(C)C)CC(C)C
inactive: dose: 100.0 mg/kg/injection, schedule: Q01DX001 (ip), vehicle: carboxymethylcellulose (CMC) 102 % of control | dose: 100.0 mg/kg/injection, schedule: Q01DX009 (ip), vehicle: carboxymethylcellulose (CMC) 93 % of control and 106 % of control | dose: 100.0 mg/kg/injection, schedule: Q04DX002 (ip), vehicle: carboxymethylcellulose (CMC) 97 % of control | dose: 100.0 mg/kg/injection, schedule: Q04DX003 (ip), vehicle: carboxymethylcellulose (CMC) 109 % of control | dose: 200.0 mg/kg/injection, schedule: Q01DX001 (ip), vehicle: carboxymethylcellulose (CMC) 100 % of control | dose: 200.0 mg/kg/injection, schedule: Q01DX009 (ip), vehicle: carboxymethylcellulose (CMC) 104 % of control and 90 % of control | dose: 200.0 mg/kg/injection, schedule: Q04DX002 (ip), vehicle: carboxymethylcellulose (CMC) 102 % of control | dose: 200.0 mg/kg/injection, schedule: Q04DX003 (ip), vehicle: carboxymethylcellulose (CMC) 102 % of control | dose: 400.0 mg/kg/injection, schedule: Q01DX001 (ip), vehicle: carboxymethylcellulose (CMC) 90 % of control | dose: 400.0 mg/kg/injection, schedule: Q04DX002 (ip), vehicle: carboxymethylcellulose (CMC) 100 % of control | dose: 400.0 mg/kg/injection, schedule: Q04DX003 (ip), vehicle: carboxymethylcellulose (CMC) 100 % of control

O=C(Nc1ccc([N+](=O)[O-])cc1)Nc1ccc([N+](=O)[O-])cc1
inactive: dose: 100.0 mg/kg/injection, schedule: Q01DX009 (ip), vehicle: Klucel (hydroxypropylcellulose) (HPC) 93 % of control | dose: 100.0 mg/kg/injection, schedule: Q01DX009 (ip), vehicle: saline sonified 109 % of control | [17] 109 % of control | [1] 101 % of control | [13] 104 % of control | dose: 100.0 mg/kg/injection, schedule: Q04DX003 (ip), vehicle: saline sonified 96 % of control | [4] 100 % of control | dose: 200.0 mg/kg/injection, schedule: Q01DX009 (ip), vehicle: Klucel (hydroxypropylcellulose) (HPC) 94 % of control | dose: 200.0 mg/kg/injection, schedule: Q01DX009 (ip), vehicle: saline sonified 110 % of control | [18] 90 % of control | [2] 90 % of control | [14] 104 % of control | dose: 200.0 mg/kg/injection, schedule: Q04DX003 (ip), vehicle: saline sonified 91 % of control | [5] 102 % of control | dose: 400.0 mg/kg/injection, schedule: Q01DX009 (ip), vehicle: Klucel (hydroxypropylcellulose) (HPC) 88 % of control | dose: 400.0 mg/kg/injection, schedule: Q01DX009 (ip), vehicle: saline sonified 98 % of control | [19] 86 % of control | [3] 97 % of control | [15] 98 % of control | dose: 400.0 mg/kg/injection, schedule: Q04DX003 (ip), vehicle: saline sonified 93 % of control | [6] 97 % of control

CSc1nn(C)c[n+]1-c1ccccc1
inactive: [12] 105 % of control

CC(C(N)=O)N1C(=O)C2C3CCC(C3)C2C1=O (configuration not stated)
inactive: [7] 103 % of control | [8] 91 % of control | [9] 86 % of control

O=C1/C(=C/c2cccc([N+](=O)[O-])c2)CCc2ccccc21
inactive: dose: 100.0 mg/kg/injection, schedule: Q04DX003 (ip), vehicle: acetone 109 % of control | dose: 200.0 mg/kg/injection, schedule: Q04DX003 (ip), vehicle: acetone 101 % of control | dose: 400.0 mg/kg/injection, schedule: Q04DX003 (ip), vehicle: acetone 96 % of control

O=C(O)c1cc(Br)c(OCc2ccccc2)c(Br)c1
inactive: dose: 100.0 mg/kg/injection, schedule: Q01DX001 (ip), vehicle: saline with Tween-80 101 % of control | dose: 200.0 mg/kg/injection, schedule: Q01DX001 (ip), vehicle: saline with Tween-80 104 % of control | dose: 400.0 mg/kg/injection, schedule: Q01DX001 (ip), vehicle: saline with Tween-80 104 % of control

CN(Cc1cc(Br)cc(Br)c1O)C1CC2CCC1(C)C2(C)C (configuration not stated)
inactive: [13] 88 % of control | [14] 95 % of control | [15] 88 % of control

CCO/C=C1/C(=O)N(C)c2c1c(=O)n(C)c(=O)n2C
inactive: [1] 106 % of control | [2] 109 % of control
